For this assay, the target named is T1, cloned human GLP-1 receptor (Homo sapiens, UniProt P43220).
T1 construct: expressed in transfected cells; host or cells: CHO or HEK-293 cells
Nature of the assay: Functional cell-based assay: cAMP functional assay. To be noted: for Emax: 0.5 h, percentage relative to maximal GLP-1-induced cAMP accumulation, na = not active in the assay, read-out: % activation. On the procedure: Following overnight incubation of cells, media was removed, and compounds (at concentrations ranging from 0.0001 to 100 μM) were added to monolayer cells in Iscove's modified dulbecco's medium (IMDM), 100 μM RO 20-1724 PDE inhibitor, 0.1% BSA, 2% DMSO in a final volume of 100 μL, and incubated for 30 min at 37° C. 95% O2, 5% CO2 in a humidified incubator. cAMP was quantitated using a homogenous time-resolved fluorescence detection system (cAMP dynamic, CIS bio International).
Background: Changes in cAMP serve as a functional read-out for many G protein-coupled receptors.

T1 sequence (P43220 24-463): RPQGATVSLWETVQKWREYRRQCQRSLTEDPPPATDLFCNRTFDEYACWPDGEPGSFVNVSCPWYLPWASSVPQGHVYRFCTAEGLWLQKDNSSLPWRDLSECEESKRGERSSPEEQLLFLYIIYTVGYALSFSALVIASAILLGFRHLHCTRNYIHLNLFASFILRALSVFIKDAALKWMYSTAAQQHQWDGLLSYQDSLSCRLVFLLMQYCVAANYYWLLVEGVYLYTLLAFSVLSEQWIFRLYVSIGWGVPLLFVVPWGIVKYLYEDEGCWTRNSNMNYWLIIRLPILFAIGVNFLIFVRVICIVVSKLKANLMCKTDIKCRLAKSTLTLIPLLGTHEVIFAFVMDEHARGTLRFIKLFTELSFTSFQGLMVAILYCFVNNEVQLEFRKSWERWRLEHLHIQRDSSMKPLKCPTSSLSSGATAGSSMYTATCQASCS

Broadly, the EC50 is the midpoint of the concentration-response curve. A lower EC50 goes with greater potency. Regarding `CC(=O)Nc1nc(C)c(S(=O)(=O)N2Cc3cc4c(cc3C[C@H]2C(=O)N[C@@H](Cc2ccc(-c3ccc(C#N)cc3)cc2)C(=O)O)NC(=O)C(c2ccc(OCc3ccc(Cl)c(Cl)c3)cc2)O4)s1` (single isomer, unassigned) [Example 81], a half-maximal effect (EC50) was put at 70 nM and the Emax came to 25%.

As for `CC[C@@H](c1ccccc1)N1Cc2cc3c(cc2C[C@H]1C(=O)N[C@@](C)(Cc1ccc(-c2ccc(C#N)cc2)cc1)C(=O)O)N(C)C(=O)C(c1ccc(OCc2ccc(Cl)c(Cl)c2)cc1)O3` (stereo in doubt) [Example 97, (S)-3-(4′-Cyano-biphenyl-4-yl)-2-{[(S)-3-[4-(3,4-dichloro-benzyloxy)-phenyl]-1-methyl-2-oxo-6-((S)-1-phenyl-propyl)-2,3,5,6,7,8-hexahydro-1H-4-oxa-1,6-diaza-anthracene-7-carbonyl]-amino}-2-methyl-propionic acid], the EC50 is 38.2 nM and the Emax was 38%.

`N#Cc1ccc(-c2ccc(C[C@H](NC(=O)[C@@H]3Cc4cc5c(cc4CN3C(=O)OC3CCC(O)CC3)OC(c3ccc(OCc4ccc(Cl)c(Cl)c4)cc3)C(=O)N5)C(=O)O)cc2)cc1` (stereo partly drawn) [Example 1, (S)-7-[(S)-1-Carboxy-2-(4′-cyano-biphenyl-4-yl)-ethylcarbamoyl]-3-[4-(3,4-dichloro-benzyloxy)-phenyl]-2-oxo-1,2,3,5,7,8-hexahydro-4-oxa-1,6-diaza-anthracene-6-carboxylic acid 4-hydroxy-cyclohexyl ester]: the EC50 is 900 nM and the Emax is 15%.

Take `N#Cc1ccc(-c2ccc(C[C@H](NC(=O)[C@@H]3Cc4cc5c(cc4CN3C(=O)OC3CCC(O)C3)OC(c3ccc(OCc4ccc(Cl)c(Cl)c4)cc3)C(=O)N5)C(=O)O)cc2)cc1` (stereo partly drawn) [Example 2, (S)-7-[(S)-1-Carboxy-2-(4′-cyano-biphenyl-4-yl)-ethylcarbamoyl]-3-[4-(3,4-dichloro-benzyloxy)-phenyl]-2-oxo-1,2,3,5,7,8-hexahydro-4-oxa-1,6-diaza-anthracene-6-carboxylic acid 3-hydroxy-cyclopentyl ester]: the EC50 was 670 nM and the Emax stood at 7.8%.

For `N#Cc1ccc(-c2ccc(C[C@H](NC(=O)[C@@H]3Cc4cc5c(cc4CN3C(=O)c3cccnc3)OC(c3ccc(OCc4ccc(Cl)c(Cl)c4)cc3)C(=O)N5)C(=O)O)cc2)cc1` (stereo partly drawn) [Example 4, (S)-3-(4′-Cyano-biphenyl-4-yl)-2-{[(S)-3-[4-(3,4-dichloro-benzyloxy)-phenyl]-2-oxo-6-(pyridine-3-carbonyl)-2,3,5,6,7,8-hexahydro-1H-4-oxa-1,6-diaza-anthracene-7-carbonyl]-amino}-propionic acid], the half-maximal effective concentration (EC50) was 3800 nM and the Emax came to 20%.

As for `N#Cc1ccc(-c2ccc(C[C@H](NC(=O)[C@@H]3Cc4cc5c(cc4CN3C(=O)[C@@H]3CCCO3)OC(c3ccc(OCc4ccc(Cl)c(Cl)c4)cc3)C(=O)N5)C(=O)O)cc2)cc1` (stereo partly drawn) [Example 5, (S)-3-(4′-Cyano-biphenyl-4-yl)-2-{[(S)-3-[4-(3,4-dichloro-benzyloxy)-phenyl]-2-oxo-6-((S)-tetrahydro-furan-2-carbonyl)-2,3,5,6,7,8-hexahydro-1H-4-oxa-1,6-diaza-anthracene-7-carbonyl]-amino}-propionic acid], the EC50 was found to be 30000 nM and the Emax turned out to be 18%.

Take `N#Cc1ccc(-c2ccc(C[C@H](NC(=O)[C@@H]3Cc4cc5c(cc4CN3C(=O)[C@H]3CCCO3)OC(c3ccc(OCc4ccc(Cl)c(Cl)c4)cc3)C(=O)N5)C(=O)O)cc2)cc1` (stereo partly drawn) [Example 6, (S)-3-(4′-Cyano-biphenyl-4-yl)-2-{[(S)-3-[4-(3,4-dichloro-benzyloxy)-phenyl]-2-oxo-6-((R)-tetrahydro-furan-2-carbonyl)-2,3,5,6,7,8-hexahydro-1H-4-oxa-1,6-diaza-anthracene-7-carbonyl]-amino}-propionic acid]: the EC50 came out at 3600 nM and the Emax was 7%.

Regarding `N#Cc1ccc(-c2ccc(C[C@H](NC(=O)[C@@H]3Cc4cc5c(cc4CN3CC#Cc3ccccc3)OC(c3ccc(OCc4ccc(Cl)c(Cl)c4)cc3)C(=O)N5)C(=O)O)cc2)cc1` (stereo partly drawn) [Example 7, (S)-3-(4′-Cyano-biphenyl-4-yl)-2-{[(S)-3-[4-(3,4-dichloro-benzyloxy)-phenyl]-2-oxo-6-(3-phenyl-prop-2-ynyl)-2,3,5,6,7,8-hexahydro-1H-4-oxa-1,6-diaza-anthracene-7-carbonyl]-amino}-propionic acid], the EC50 is 474 nM and the Emax worked out at 35%.

With `CC(C)OC(=O)N1Cc2cc3c(cc2C[C@H]1C(=O)N[C@@H](Cc1ccc(-c2ccc(C#N)cc2)cc1)C(=O)O)NC(=O)C(c1ccc(OCc2ccc(Cl)c(Cl)c2)cc1)O3` (stereo partly drawn) [Example 8, (S)-7-[(S)-1-Carboxy-2-(4′-cyano-biphenyl-4-yl)-ethylcarbamoyl]-3-[4-(3,4-dichloro-benzyloxy)-phenyl]-2-oxo-1,2,3,5,7,8-hexahydro-4-oxa-1,6-diaza-anthracene-6-carboxylic acid isopropyl ester], a half-maximal response (EC50) required 134 nM and the Emax stood at 64%.

For the compound `CC(C)COC(=O)N1Cc2cc3c(cc2C[C@H]1C(=O)N[C@@H](Cc1ccc(-c2ccc(C#N)cc2)cc1)C(=O)O)NC(=O)C(c1ccc(OCc2ccc(Cl)c(Cl)c2)cc1)O3` (stereo partly drawn) [Example 9, (S)-7-[(S)-1-Carboxy-2-(4′-cyano-biphenyl-4-yl)-ethylcarbamoyl]-3-[4-(3,4-dichloro-benzyloxy)-phenyl]-2-oxo-1,2,3,5,7,8-hexahydro-4-oxa-1,6-diaza-anthracene-6-carboxylic acid isobutyl ester], the EC50 was found to be 500 nM and the Emax stood at 54%.

For the compound `CC(C)(C)COC(=O)N1Cc2cc3c(cc2C[C@H]1C(=O)N[C@@H](Cc1ccc(-c2ccc(C#N)cc2)cc1)C(=O)O)NC(=O)C(c1ccc(OCc2ccc(Cl)c(Cl)c2)cc1)O3` (stereo partly drawn) [Example 10, (S)-7-[(S)-1-Carboxy-2-(4′-cyano-biphenyl-4-yl)-ethylcarbamoyl]-3-[4-(3,4-dichloro-benzyloxy)-phenyl]-2-oxo-1,2,3,5,7,8-hexahydro-4-oxa-1,6-diaza-anthracene-6-carboxylic acid 2,2-dimethyl-propyl ester], a half-maximal effect (EC50) was put at 418 nM and the Emax came to 51%.

Turning to `N#Cc1ccc(-c2ccc(C[C@H](NC(=O)[C@@H]3Cc4cc5c(cc4CN3C(=O)OC3CCOCC3)OC(c3ccc(OCc4ccc(Cl)c(Cl)c4)cc3)C(=O)N5)C(=O)O)cc2)cc1` (stereo partly drawn) [Example 11, (S)-7-[(S)-1-Carboxy-2-(4′-cyano-biphenyl-4-yl)-ethylcarbamoyl]-3-[4-(3,4-dichloro-benzyloxy)-phenyl]-2-oxo-1,2,3,5,7,8-hexahydro-4-oxa-1,6-diaza-anthracene-6-carboxylic acid tetrahydro-pyran-4-yl ester], the midpoint of the response, the EC50, lay at 606 nM and the Emax stood at 71%.

Regarding `N#Cc1ccc(-c2ccc(C[C@H](NC(=O)[C@@H]3Cc4cc5c(cc4CN3C(=O)C3CCC3)OC(c3ccc(OCc4ccc(Cl)c(Cl)c4)cc3)C(=O)N5)C(=O)O)cc2)cc1` (stereo partly drawn) [Example 12, (S)-3-(4′-Cyano-biphenyl-4-yl)-2-({(S)-6-cyclobutanecarbonyl-3-[4-(3,4-dichloro-benzyloxy)-phenyl]-2-oxo-2,3,5,6,7,8-hexahydro-1H-4-oxa-1,6-diaza-anthracene-7-carbonyl}-amino)-propionic acid], a half-maximal effect (EC50) was put at 427 nM and the Emax was determined as 61%.

As to `CC(C)C(=O)N1Cc2cc3c(cc2C[C@H]1C(=O)N[C@@H](Cc1ccc(-c2ccc(C#N)cc2)cc1)C(=O)O)NC(=O)C(c1ccc(OCc2ccc(Cl)c(Cl)c2)cc1)O3` (stereo partly drawn) [Example 13, (S)-3-(4′-Cyano-biphenyl-4-yl)-2-({(S)-3-[4-(3,4-dichloro-benzyloxy)-phenyl]-6-isobutyryl-2-oxo-2,3,5,6,7,8-hexahydro-1H-4-oxa-1,6-diaza-anthracene-7-carbonyl}-amino)-propionic acid], the midpoint of the response, the EC50, lay at 1210 nM and the Emax turned out to be 59%.

As for `N#Cc1ccc(-c2ccc(C[C@H](NC(=O)[C@@H]3Cc4cc5c(cc4CN3S(=O)(=O)c3ccccc3)OC(c3ccc(OCc4ccc(Cl)c(Cl)c4)cc3)C(=O)N5)C(=O)O)cc2)cc1` (stereo partly drawn) [Example 14, (S)-2-({(S)-6-Benzenesulfonyl-3-[4-(3,4-dichloro-benzyloxy)-phenyl]-2-oxo-2,3,5,6,7,8-hexahydro-1H-4-oxa-1,6-diaza-anthracene-7-carbonyl}-amino)-3-(4′-cyano-biphenyl-4-yl)-propionic acid], the EC50 is 450 nM and the Emax was 77%.

For `N#Cc1ccc(-c2ccc(C[C@H](NC(=O)[C@@H]3Cc4cc5c(cc4CN3C(=O)C3CCCC3)OC(c3ccc(OCc4ccc(Cl)c(Cl)c4)cc3)C(=O)N5)C(=O)O)cc2)cc1` (stereo partly drawn) [Example 16, (S)-3-(4′-Cyano-biphenyl-4-yl)-2-({(S)-6-cyclopentanecarbonyl-3-[4-(3,4-dichloro-benzyloxy)-phenyl]-2-oxo-2,3,5,6,7,8-hexahydro-1H-4-oxa-1,6-diaza-anthracene-7-carbonyl}-amino)-propionic acid], the half-maximal effective concentration (EC50) was found to be 657 nM and the Emax came out at 78%.

Regarding `N#Cc1ccc(-c2ccc(C[C@H](NC(=O)[C@@H]3Cc4cc5c(cc4CN3C(=O)N3CCCCC3)OC(c3ccc(OCc4ccc(Cl)c(Cl)c4)cc3)C(=O)N5)C(=O)O)cc2)cc1` (stereo partly drawn) [Example 17, (S)-3-(4′-Cyano-biphenyl-4-yl)-2-{[(S)-3-[4-(3,4-dichloro-benzyloxy)-phenyl]-2-oxo-6-(piperidine-1-carbonyl)-2,3,5,6,7,8-hexahydro-1H-4-oxa-1,6-diaza-anthracene-7-carbonyl]-amino}-propionic acid], the EC50 was 699 nM and the Emax amounted to 80%.

These data come from patent US7906507B2, “Oxadiazoanthracene compounds for the treatment of diabetes” (TransTech Pharma, Inc., priority 2008, dated 2011).
